Assays:
[1] = tested on: IL-6, IL-1β IL-23 and TNF-a; conditions: cited from earlier work
IL-12/p40 = conditions: cited from earlier work
[2] = tested on: isolated postnatal microglial cell cultures; assay: Cytokine gene expression in microglial cell cultures treated with synthetic Aβ1-42; format: cell-based; conditions: 22.5 μg/ml
Experimental: Treatment of isolated postnatal microglial cell cultures with synthetic Aβ1-42 peptides (22.5 μg/ml) induced an almost 6-fold upregulation of IL-12/IL-23p40 after 24 h when compared to unstimulated controls (FIG. 1c).
Since both in human AD samples as well as in transgenic AD mice, microglia and macrophages surrounding Aβ-plaques are reported to be a major source of inflammatory cytokines, we FACS sorted myeloid brain cells of Alzheimer mice in order to better characterize this inflammatory component. Initially, we assessed the expression of IL-12, IL-23 and TNFα in 4-month-old APPPS1 animals and age matched non-transgenic littermates by quantitative PCR of the two cellular fractions obtained (CD45^+ CD11b^+ and CD45^− CD11b^−). […] In contrast, we observed a robust upregulation of IL-12/IL-23p40 and IL-23p19 in the double positive fraction containing microglia and brain macrophages of APPPS1 mice compared to age-matched littermate controls (FIG. 1b). […] To validate a potential link between IL-12 and IL-23 subunits and Aβ-pathology in APPPS1 transgenic animals—besides their impact in models of CNS autoimmune disease, IL-12/IL-23 have not been described to play a role in neurodegenerative diseases so far—as well as to test, whether inhibition of IL-12 and IL-23 subunits could alter disease progression in AD mice, genetic and applied experiments targeting IL-12 and IL-23 subunits in AD mice were performed.

In the case of `CC/C=C\C[C@H](O)C(O)/C=C/C=C/C=C\C=C\[C@@H](O)C/C=C\CCC(=O)O` (stereo partly drawn) [Resolvin D2, (7S, 17S)-7, 16, 17-trihydroxydocosa-4,8, 10, 12, 14, 19-hexaenoic acid], the “levels of proinflammatory cytokines, namely IL-6, IL-1β IL-23 and TNF-a” value [1] is listed as “drastically reduces”.
In the case of `CC[C@@H](O)/C=C/C=C\C[C@@H](O)/C=C/C=C/C=C\[C@@H](O)CCCC(=O)O` [Resolvin E1, (5S, 12R, 18R)-5, 12, 18-trihydroxyicosa-6,8, 10, 14, 16-pentaenoic acid], the “proinflammatory gene expression, i. a. IL-12/p40” value (IL-12/p40) is listed as “dramatically decreases”.
For “Aβ1-42 peptides: synthetic Aβ1-42 peptides used to stimulate microglial cell cultures”, the “upregulation of IL-23p19” value [2] was “substantial upregulation”, the “upregulation of TNFα” value [2] was “substantial upregulation” and the “upregulation of IL-12/IL-23p40 over unstimulated controls” value ([2]; 24 h) was about 6 fold.
